Experiment [1] concerns the target T1, Dihydrofolate reductase (Candida albicans, UniProt P22906).
T1 sequence (P22906 whole entry): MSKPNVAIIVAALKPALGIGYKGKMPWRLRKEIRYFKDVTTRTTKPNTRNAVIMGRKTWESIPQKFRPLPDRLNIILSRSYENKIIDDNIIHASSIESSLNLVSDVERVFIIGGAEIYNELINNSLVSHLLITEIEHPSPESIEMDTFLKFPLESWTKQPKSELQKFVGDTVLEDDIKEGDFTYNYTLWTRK
Description: Inhibition of Candida albicans DHFR expressed in Escherichia coli BL21 (DE3) assessed as rate of NADPH consumption using dihydrofolate as substrate

Experiment [2] has as its system Candida albicans.
Experiment [3] can be described thus: Cytotoxicity against human MCF10A cells after 4 hrs by alamar blue assay. The conditions noted are these: MCF-10A. (The colour change of resazurin is a common sign of viable cells or microbes.)
Experiment [4] addresses T2, Dihydrofolate reductase (Homo sapiens, UniProt P00374).
T2 sequence (P00374 whole entry): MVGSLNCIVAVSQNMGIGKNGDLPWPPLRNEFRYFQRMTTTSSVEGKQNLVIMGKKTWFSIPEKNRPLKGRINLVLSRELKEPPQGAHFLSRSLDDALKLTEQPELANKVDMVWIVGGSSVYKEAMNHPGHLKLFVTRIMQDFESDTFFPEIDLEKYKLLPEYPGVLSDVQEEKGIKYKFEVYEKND
Description: Inhibition of human DHFR assessed as rate of NADPH consumption using dihydrofolate as substrate

Experiment [5] relates to Candida albicans. Description: Antifungal activity against Candida albicans by alamar blue assay.

Molecules are shown by their SMILES. In brackets after ≈: the same amount, converted by molar mass. Activity calls are given as the source filed them. No cut-off for these calls is given here.

`COc1cc(-c2ccc(C)cc2)cc(C(C)C#Cc2c(C)nc(N)nc2N)c1` (racemic): the concentration for half-maximal inhibition (IC50) (in general, the point on the concentration scale where inhibition reaches its midpoint) in experiment [1] came to 0.022 µM.

Turning to `COc1cc(C(C)C#Cc2cnc(N)nc2N)cc(OC)c1OC` (racemic), the MIC (commonly the lowest concentration that inhibits growth of the organism) in experiment [2] is “inactive”. In addition, in experiment [1], the 50% inhibitory concentration (IC50) came out at 0.18 µM.

In the case of `COc1cc(-c2ccccc2)cc([C@@H](C)C#Cc2c(C)nc(N)nc2N)c1`, the IC50 in experiment [1] was 0.033 µM.

`CCc1nc(N)nc(N)c1C#CCc1cc(OC)c(OC)c(OC)c1` returned an IC50 in experiment [1] of 0.018 µM.

In the case of `CCc1nc(N)nc(N)c1C#CCc1cc(OC)ccc1OC`, the IC50 in experiment [1] is 0.1 µM; in experiment [3], 63 µM.

For the compound `COc1cc(-c2ccc(C(C)(C)C)cc2)cc(C(C)C#Cc2c(C)nc(N)nc2N)c1` (racemic), the 50% inhibitory concentration (IC50) in experiment [1] was determined as 0.034 µM; in experiment [3], 50 µM.

The compound `CCCc1nc(N)nc(N)c1C#CCc1cc(OC)ccc1OC` showed an IC50 in experiment [1] of 0.045 µM.

With `COc1ccc(OC)c(C(C#Cc2c(C)nc(N)nc2N)OC)c1` (racemic), the half-inhibitory concentration (IC50) is 0.06 µM in experiment [4] and 0.55 µM in experiment [1]. Besides, the MIC entry in experiment [2] was “inactive”.

With `COc1cc(CC#Cc2cnc(N)nc2N)cc(OC)c1OC`, in experiment [2], the MIC entry was “inactive”. In experiment [1], this compound showed an IC50 of 0.82 µM.

Take `COc1cc(C(C)C#Cc2c(C)nc(N)nc2N)ccc1-c1c(C)cccc1C` (racemic): the MIC result in experiment [2] is “inactive”. Besides, in experiment [1], the 50% inhibitory concentration (IC50) was 0.032 µM.

For the compound `COc1cc(CC#Cc2c(C)nc(N)nc2N)cc(OC)c1OC`, in experiment [2], the MIC entry was “inactive”. Moreover, half-maximal inhibition in experiment [1] (IC50) was put at 0.18 µM.

On to `COc1ccc(OC)c(CC#Cc2cnc(N)nc2N)c1`, for which 1.4 µM corresponded to half-maximal inhibition in experiment [1] (IC50).

With `COc1cc(-c2ccccc2)cc([C@H](C)C#Cc2c(C)nc(N)nc2N)c1`, in experiment [1], the IC50 was 0.037 µM.

As for `COc1cc(C(C#Cc2cnc(N)nc2N)OC)cc(OC)c1OC` (racemic), the MIC result in experiment [2] is “inactive”. In experiment [1], the IC50 turned out to be 2.5 µM.

In experiment [1], `CCc1nc(N)nc(N)c1C#CC(C)c1cc(OC)c(OC)c(OC)c1` (racemic) gave a concentration for half-maximal inhibition (IC50) of 0.02 µM.

Take `COc1cc(C(C)C#Cc2c(C)nc(N)nc2N)ccc1-c1c(C(C)C)cccc1C(C)C` (racemic): the MIC entry in experiment [2] was “inactive”. In experiment [1], this compound came in with an IC50 of 0.041 µM.

As to `COc1cc(C(C)C#Cc2c(C)nc(N)nc2N)ccc1-c1ccccc1` (racemic), the IC50 in experiment [1] was 0.055 µM; in experiment [3] it was 80 µM.

On to `COc1ccc(OC)c(CC#Cc2c(C)nc(N)nc2N)c1`, for which, in experiment [1], the IC50 was 0.41 µM.

With `COc1cc(-c2ccccc2)cc(C(O)C#Cc2c(C)nc(N)nc2N)c1` (racemic), the MIC result in experiment [2] was “inactive”. The compound further returned an IC50 in experiment [1] of 0.091 µM.

Turning to `COc1cc(C(O)C#Cc2c(C)nc(N)nc2N)cc(OC)c1OC` (racemic), the MIC result in experiment [2] was “inactive”. The half-inhibitory concentration (IC50) in experiment [1] came out at 0.98 µM; in experiment [3], 1000 µM.

Turning to `COc1cc(-c2ccccc2)cc(C(C)C#Cc2c(C)nc(N)nc2N)c1` (racemic), the minimum inhibitory concentration (MIC) in experiment [5] worked out at 90 µg/mL (≈ 251 µM).

In the case of `COc1ccc(-c2cc(OC)cc(C(C)C#Cc3c(C)nc(N)nc3N)c2)cc1` (racemic), the concentration for half-maximal inhibition (IC50) in experiment [1] was 0.03 µM.

`COc1cc(-c2ccccc2C)cc(C(C)C#Cc2c(C)nc(N)nc2N)c1` (racemic) registered an IC50 in experiment [1] of 0.045 µM.

In experiment [1], `COc1cc(CC#Cc2c(C)nc(N)nc2N)cc(-c2c(C)cccc2C)c1` had an IC50 of 0.055 µM.

As to `COc1cc(C(C#Cc2c(C)nc(N)nc2N)OC)cc(OC)c1OC` (racemic), the MIC result in experiment [2] was “inactive”. The same compound registered an IC50 in experiment [1] of 0.32 µM.

For `COc1cc(C(O)C#Cc2cnc(N)nc2N)cc(OC)c1OC` (racemic), the MIC result in experiment [2] is “inactive”. Inhibition in experiment [1] was half-maximal at 11.9 µM (IC50).

In the case of `COc1cc(-c2c(C(C)C)cccc2C(C)C)cc(C(C)C#Cc2c(C)nc(N)nc2N)c1` (racemic), the MIC result in experiment [2] is “inactive”. Also, 0.038 µM corresponded to half-maximal inhibition in experiment [1] (IC50).

In turn, `COc1cc(C(C#Cc2c(C)nc(N)nc2N)C(C)C)cc(OC)c1OC` (racemic) came in with an IC50 in experiment [1] of 0.033 µM.

As to `COc1ccc(OC)c(C(O)C#Cc2c(C)nc(N)nc2N)c1` (racemic), half-maximal inhibition in experiment [1] (IC50) was put at 0.73 µM.

As for `CCC(C#Cc1c(C)nc(N)nc1N)c1cc(OC)c(OC)c(OC)c1` (racemic), the IC50 is 0.2 µM in experiment [4] and 0.045 µM in experiment [1].

`COc1cc(C(C)C#Cc2c(C)nc(N)nc2N)cc(OC)c1OC` (racemic): it took 0.11 µM to reach half-maximal inhibition in experiment [1] (IC50).

`COc1cc(-c2cc(C)cc(C)c2)cc(C(C)C#Cc2c(C)nc(N)nc2N)c1` (racemic) came in with an IC50 in experiment [1] of 0.017 µM.

Take `COc1ccc(OC)c(C(C)C#Cc2c(C)nc(N)nc2N)c1` (racemic): the results for the half-maximal inhibitory concentration (IC50) in experiment [4] and in experiment [1] were 0.4 µM and 0.048 µM, respectively.

As for `COc1cc(-c2c(C)cccc2C)cc(C(C)C#Cc2c(C)nc(N)nc2N)c1` (racemic), in experiment [1], the midpoint of inhibition, the IC50, lay at 0.045 µM.

(Values after ChEMBL document CHEMBL1154109, “In vitro biological activity and structural analysis of 2,4-diamino-5-(2'-arylpropargyl)pyrimidine inhibitors of Candida albicans” (Bioorg Med Chem, 2009).)
